Among the test systems are A498; ACHN; COLO 205; HCT-116; HOP-62; Hs-578T; M14; MDA-MB-231; MDA-N; NCI-H226; NCI-H23; OVCAR-3; OVCAR-4; OVCAR-8; SR; SW-620; U-251; UACC-257; MDA-MB-435; Malme-3M.
Experiment in all cases: NCI tumour cell line growth inhibition, 48 h

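Protocol summary: plate cells (96-well), add compound at 5 concentrations, incubate 48 h, interpolate endpoints linearly. GI50 marks 50% less growth.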 The source made the active and inactive calls. Rule as the data show it: active = GI50 up to about 1.1 µM and inactive = higher. Bounds are passed on as bounds.

Consider eleven compounds from ChEMBL document CHEMBL1201862, “PubChem BioAssay data set” (2004).

In the case of `C=C(C)C(=O)N1c2ccc(OC)cc2CC1C(=O)OCC` (stereo not given), the GI50 in the experiment with A498, in the experiment on ACHN, with COLO 205, with HCT-116, in the experiment with HOP-62 and with Hs-578T was > 100 µM (inactive) in each case. In addition, the GI50 with M14, in the experiment on MDA-MB-231, with MDA-N, with NCI-H226, in the experiment on NCI-H23 and in the experiment on OVCAR-3 was > 100 µM (inactive) each time. Further, the GI50 with OVCAR-4, in the experiment on OVCAR-8, in the experiment with SR, in the experiment with SW-620, with U-251 and in the experiment on UACC-257 was > 100 µM (inactive) each time.

Consider `CCN1C2=NCCN2S(=O)(=O)c2ccccc21`, for which the GI50 with A498, with ACHN, with COLO 205, in the experiment on HCT-116, with HOP-62 and in the experiment with Hs-578T was > 100 µM (inactive) in each case. The GI50 with M14, in the experiment with MDA-MB-231, with MDA-MB-435, with MDA-N, in the experiment on NCI-H226 and in the experiment with NCI-H23 was > 100 µM (inactive) in each case. Further, the GI50 in the experiment with OVCAR-3, with OVCAR-4, in the experiment with OVCAR-8, in the experiment with SW-620, with U-251 and with UACC-257 was > 100 µM (inactive) throughout.

As to `O=c1c2ccccc2n2nnc3ccc(NCCCNCCNCCCNc4ccc5nnn6c7ccccc7c(=O)c4c56)c1c32`, the GI50 in the experiment with A498 is 16.3 µM (inactive); with ACHN, 0.986 µM (active); with COLO 205 it was 1.39 µM (inactive); with HCT-116, 0.207 µM (active); with HOP-62, 2.99 µM (inactive); with Hs-578T it was 5.52 µM (inactive). Besides, the GI50 in the experiment with M14 was > 12.6 µM (inactive); in the experiment with MDA-MB-231 it was 1.01 µM (active); with MDA-N, 1.38 µM (inactive); in the experiment on Malme-3M, 5.83 µM (inactive); in the experiment with NCI-H226 it was 0.005 µM (active); in the experiment with NCI-H23, 3.83 µM (inactive). The GI50 in the experiment on OVCAR-3 was 6.35 µM (inactive); in the experiment with OVCAR-4 it was 2.3 µM (inactive); in the experiment with OVCAR-8, 1.28 µM (inactive); in the experiment with SR, 0.0883 µM (active); in the experiment with SW-620, 0.251 µM (active); with U-251 it was 0.759 µM (active). Besides, the GI50 with UACC-257 is 8.73 µM (inactive).

As to `CC(C)(C)NC(=O)N1N=C(c2ccccc2)C1c1ccccc1` (stereo not given), the GI50 with A498 was > 100 µM (inactive); with ACHN, 34.5 µM (inactive); with COLO 205, 35.7 µM (inactive); in the experiment on HCT-116, 19.7 µM (inactive); in the experiment on Hs-578T, 48.3 µM (inactive); in the experiment with M14 it was 61.5 µM (inactive). Moreover, the GI50 was 95.9 µM (inactive) in the experiment with MDA-MB-231; 44.6 µM (inactive) in the experiment on MDA-N; 25.3 µM (inactive) in the experiment with Malme-3M; 48.4 µM (inactive) in the experiment on NCI-H226; 35.9 µM (inactive) with NCI-H23; 21.5 µM (inactive) with OVCAR-3. Besides, the GI50 with OVCAR-4 was 56.5 µM (inactive); with OVCAR-8, 40.2 µM (inactive); with SW-620 it was 31.1 µM (inactive); with U-251 it was 69.3 µM (inactive); in the experiment on UACC-257 it was 25.5 µM (inactive).

Take `CCC/C(Cl)=N\OC(=O)Nc1cccc(C(F)(F)F)c1`: the GI50 in the experiment on A498 is 17.8 µM (inactive); in the experiment on ACHN, 16.3 µM (inactive); in the experiment on COLO 205, 3.05 µM (inactive); in the experiment with HCT-116, 18.2 µM (inactive); with HOP-62 it was > 100 µM (inactive); with Hs-578T it was 29.7 µM (inactive). The GI50 is 17.7 µM (inactive) in the experiment with M14; 17 µM (inactive) in the experiment with MDA-MB-231; 17.6 µM (inactive) with MDA-N; 13.2 µM (inactive) in the experiment on Malme-3M; 20.5 µM (inactive) with NCI-H226; 20.7 µM (inactive) with NCI-H23. Also, the GI50 in the experiment with OVCAR-3 was 22.4 µM (inactive); in the experiment with OVCAR-4, 22.6 µM (inactive); with OVCAR-8 it was 17.9 µM (inactive); in the experiment with SR, 2.26 µM (inactive); in the experiment with SW-620, 2.81 µM (inactive); with U-251, 18.5 µM (inactive). Further, the GI50 in the experiment with UACC-257 was 17.5 µM (inactive).

Consider `Cn1c(=O)cc(NCc2ccc(Cl)cc2)[nH]c1=O`, for which the GI50 was > 100 µM (inactive) in the experiment with A498; 49.7 µM (inactive) with ACHN; > 100 µM (inactive) in the experiment on COLO 205; 52.6 µM (inactive) with HCT-116; 22.4 µM (inactive) with HOP-62; 18.8 µM (inactive) in the experiment on Hs-578T. The GI50 in the experiment on M14 was > 100 µM (inactive); with MDA-MB-231, 49.2 µM (inactive); in the experiment with MDA-MB-435 it was > 100 µM (inactive); in the experiment on MDA-N, > 100 µM (inactive); in the experiment on Malme-3M it was 73.3 µM (inactive); in the experiment on NCI-H226, > 100 µM (inactive). Also, the GI50 with NCI-H23 was > 100 µM (inactive); in the experiment with OVCAR-3, > 100 µM (inactive); in the experiment on OVCAR-4 it was > 100 µM (inactive); in the experiment with OVCAR-8 it was 44.4 µM (inactive); in the experiment with SW-620, > 100 µM (inactive); with U-251 it was 40.3 µM (inactive). In addition, in the experiment with UACC-257, the GI50 is > 100 µM (inactive).

For the compound `CNC(=O)c1nc[nH]c1/N=N/N(C)N`, the GI50 with A498, with COLO 205, in the experiment with HCT-116, in the experiment with HOP-62, with Hs-578T and in the experiment on M14 was > 100 µM (inactive) throughout. For the same compound, the GI50 with MDA-MB-231, in the experiment with MDA-MB-435, in the experiment with MDA-N, in the experiment on Malme-3M, with NCI-H226 and in the experiment with NCI-H23 was > 100 µM (inactive) each time. The GI50 with OVCAR-3, with OVCAR-4, with OVCAR-8, in the experiment on SW-620, in the experiment with U-251 and in the experiment on UACC-257 was > 100 µM (inactive) each time.

Turning to `C=CCN(c1cc(OCc2ccccc2)c2c(c(C)cn2S(=O)(=O)c2ccc([N+](=O)[O-])cc2)c1[N+](=O)[O-])S(C)(=O)=O`, the GI50 in the experiment with ACHN was > 100 µM (inactive); with COLO 205, > 100 µM (inactive); with HCT-116, > 100 µM (inactive); in the experiment with HOP-62, > 100 µM (inactive); with Hs-578T, > 100 µM (inactive); in the experiment on M14, 29.1 µM (inactive). The GI50 in the experiment with MDA-MB-231 was > 89.5 µM (inactive); in the experiment on MDA-MB-435, 1.47 µM (inactive); in the experiment with MDA-N, 4.07 µM (inactive); in the experiment on Malme-3M, > 100 µM (inactive); in the experiment on NCI-H226 it was > 100 µM (inactive); in the experiment on NCI-H23, > 100 µM (inactive). The GI50 in the experiment on OVCAR-3, with OVCAR-4, in the experiment with OVCAR-8, in the experiment with U-251 and in the experiment with UACC-257 was > 100 µM (inactive) each time.

On to `O=C1C[C@@H](c2ccccc2)O[C@@H](c2ccccc2)C1`, for which the GI50 is 97.5 µM (inactive) in the experiment with COLO 205; > 100 µM (inactive) in the experiment on HCT-116; > 100 µM (inactive) in the experiment with HOP-62; > 100 µM (inactive) in the experiment on Hs-578T; > 100 µM (inactive) in the experiment with M14; > 100 µM (inactive) in the experiment on MDA-MB-231. Besides, the GI50 in the experiment on MDA-MB-435 is > 100 µM (inactive); with MDA-N, 58.6 µM (inactive); in the experiment with Malme-3M, > 100 µM (inactive); in the experiment on NCI-H226 it was > 100 µM (inactive); with NCI-H23, > 100 µM (inactive); with OVCAR-3, > 100 µM (inactive). Further, the GI50 in the experiment with OVCAR-4, in the experiment on OVCAR-8, with SW-620, with U-251 and in the experiment with UACC-257 was > 100 µM (inactive) each time.

As for `NNc1ccccc1Cl`, the GI50 with A498 was > 100 µM (inactive); in the experiment on ACHN, > 100 µM (inactive); in the experiment on COLO 205 it was 29 µM (inactive); in the experiment with HCT-116, > 100 µM (inactive); in the experiment on HOP-62 it was > 100 µM (inactive); in the experiment on Hs-578T, > 100 µM (inactive). The GI50 in the experiment on M14, in the experiment on MDA-MB-231, in the experiment with MDA-MB-435, with MDA-N, in the experiment with Malme-3M and with NCI-H226 was > 100 µM (inactive) throughout. Besides, the GI50 is > 100 µM (inactive) with NCI-H23; 38.7 µM (inactive) in the experiment with OVCAR-3; 91.2 µM (inactive) in the experiment with OVCAR-4; > 100 µM (inactive) with OVCAR-8; > 100 µM (inactive) with SW-620; 48.4 µM (inactive) with U-251. Also, in the experiment with UACC-257, the GI50 is > 100 µM (inactive).

As to `N=C(N)C(/N=N\c1ccccc1)C(N)=O` (stereo not given), the GI50 is 66.5 µM (inactive) with A498; > 100 µM (inactive) in the experiment with ACHN; > 100 µM (inactive) in the experiment on COLO 205; > 100 µM (inactive) with HCT-116; > 100 µM (inactive) in the experiment with HOP-62; > 100 µM (inactive) in the experiment with Hs-578T. Moreover, the GI50 in the experiment on M14 is > 100 µM (inactive); with MDA-MB-231 it was > 100 µM (inactive); in the experiment on MDA-MB-435 it was 83.4 µM (inactive); with MDA-N, > 100 µM (inactive); with Malme-3M, > 100 µM (inactive); in the experiment on NCI-H226, > 100 µM (inactive). Moreover, the GI50 is > 100 µM (inactive) in the experiment on NCI-H23; > 100 µM (inactive) in the experiment on OVCAR-3; 53.7 µM (inactive) with OVCAR-4; > 100 µM (inactive) with OVCAR-8; > 100 µM (inactive) with SW-620; > 100 µM (inactive) in the experiment with U-251. The GI50 in the experiment on UACC-257 was > 100 µM (inactive).
